In article PMC6956242 (Journal of Medicinal Chemistry, 2019):
Like-named read-outs stand apart in the source and are kept apart here. The star is where a group is joined. Biotin = O=C1N[C@H]2[C@H](CS[C@H]2CCCCC(=O)*)N1

B1: N-terminal biotinylated SRC-1 box2 peptide (peptide)
peptide: Biotin-PSSHSSLTARHKILHRLLQEGSPSD-NH2
SMILES: CC[C@H](C)[C@H](NC(=O)[C@H](CCCCN)NC(=O)[C@H](Cc1c[nH]cn1)NC(=O)[C@H](CCCNC(=N)N)NC(=O)[C@H](C)NC(=O)[C@@H](NC(=O)[C@H](CC(C)C)NC(=O)[C@H](CO)NC(=O)[C@H](CO)NC(=O)[C@H](Cc1c[nH]cn1)NC(=O)[C@H](CO)NC(=O)[C@H](CO)NC(=O)[C@@H]1CCCN1C(=O)CCCC[C@@H]1SC[C@@H]2NC(=O)N[C@@H]21)[C@@H](C)O)C(=O)N[C@@H](CC(C)C)C(=O)N[C@@H](Cc1c[nH]cn1)C(=O)N[C@@H](CCCNC(=N)N)C(=O)N[C@@H](CC(C)C)C(=O)N[C@@H](CC(C)C)C(=O)N[C@@H](CCC(N)=O)C(=O)N[C@@H](CCC(=O)O)C(=O)NCC(=O)N[C@@H](CO)C(=O)N1CCC[C@H]1C(=O)N[C@@H](CO)C(=O)N[C@@H](CC(=O)O)C(N)=O

Columns and labels:
Plasma stability = assay type: in vitro ADME; conditions: 5 μM, 100% plasma, 1 h, 37 °C
Chemical stability = assay type: physicochemical; conditions: 2 μM, aqueous buffer pH 7.4
[1] = Microsomal stability phase II; assay type: in vitro ADME, human; conditions: 5 μM, UDPGA, 1 h, 37 °C
Plasma protein binding = assay type: in vitro ADME; conditions: 5 μM, equilibrium dialysis 6 h, 37 °C
PAMPA = assay type: in vitro ADME; conditions: 500 μM donor, 20 h
His6-RORγt-LBD [2] = molecular target: T1, His6-RORγt-LBD (Homo sapiens, UniProt P51449)
T1 sequence (P51449 265-518): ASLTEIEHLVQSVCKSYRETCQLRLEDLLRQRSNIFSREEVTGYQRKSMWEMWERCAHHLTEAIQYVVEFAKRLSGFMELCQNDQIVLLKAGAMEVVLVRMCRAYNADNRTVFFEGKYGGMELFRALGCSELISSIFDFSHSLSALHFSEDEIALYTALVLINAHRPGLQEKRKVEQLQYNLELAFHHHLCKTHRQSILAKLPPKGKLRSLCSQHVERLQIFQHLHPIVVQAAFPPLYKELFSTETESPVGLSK

His6-RORγt-LBD [3] = molecular target: T1, His6-RORγt-LBD; assay type: biochemical; conditions: for improvement in potency compared to phenyl 19: vs 19, coactivator recruitment IC50
[4] = molecular target: T2, His6-RORγt-LBD (human retinoic acid receptor-related orphan receptor γt ligand binding domain, residues … (human, UniProt P51449-1 265-518)); test: AlphaScreen or HTRF
T2 sequence (looked up): T1 sequence (P51449 265-518)

Row | Molecule | plasma stability (% remain) (Plasma stability) | chemical stability (% remain) (Chemical stability) | microsomal stability phase 2 (% remain) [1] [% remain] | plasma protein binding (% bound) (Plasma protein binding) | PAMPA (% flux) (PAMPA) | further results
1 | O=C(O)c1ccc(NC(=O)c2c(-c3c(Cl)cccc3C(F)(F)F)noc2-c2ccccc2)cc1 [compound 8, 4-{3-[2-Chloro-6-(trifluoromethyl)phenyl]-5-phenyl-1,2-oxazole-4-amido}benzoic Acid] | 99.9 | 95.4 | 100 | 97.8 | 60.1 | –
2 | C[C@H]1O[C@@H](O[C@H]2[C@@H](O)C[C@H](O[C@H]3[C@@H](O)C[C@H](O[C@H]4CC[C@@]5(C)[C@H](CC[C@@H]6[C@@H]5C[C@@H](O)[C@]5(C)[C@@H](C7=CC(=O)OC7)CC[C@]65O)C4)O[C@@H]3C)O[C@@H]2C)C[C@H](O)[C@@H]1O [compound 1, digoxin, reference compound] | – | – | – | – | – | Hill slope (His6-RORγt-LBD [2]; 0 μM cholesterol): –0.76 ± 0.05; Hill slope (His6-RORγt-LBD [2]; 0.25 μM cholesterol): –0.77 ± 0.03; Hill slope (His6-RORγt-LBD [2]; 1.0 μM cholesterol): –1.01 ± 0.06
3 | O=C(O)c1ccc(CNC(=O)c2c(-c3c(Cl)cccc3C(F)(F)F)noc2-c2ccccc2)cc1 [compound 18, 4-[({3-[2-Chloro-6-(trifluoromethyl)phenyl]-5-phenyl-1,2-oxazol-4-yl}formamido)methyl]benzoic Acid] | – | – | – | – | – | increase in potency compared to the initial hit (His6-RORγt-LBD [3]; vs 8, TR-FRET IC50): 6 fold
4 | O=C(O)c1ccc(NCc2c(-c3c(Cl)cccc3C(F)(F)F)noc2-c2cc[nH]c2)cc1 [compound 25, 4-[({3-[2-Chloro-6-(trifluoromethyl)phenyl]-5-(1H-pyrrol-3-yl)-1,2-oxazol-4-yl}methyl)amino]benzoic Acid] | 85.9 | 95.3 | 69.8 | 99.9 | 33.6 | improvement in potency compared to phenyl 19 (His6-RORγt-LBD [3]): 36 fold; Hill slope (His6-RORγt-LBD [2]; 0 μM cholesterol): –0.77 ± 0.04; Hill slope (His6-RORγt-LBD [2]; 0.25 μM cholesterol): –0.86 ± 0.03; Hill slope (His6-RORγt-LBD [2]; 1.0 μM cholesterol): –1.01 ± 0.03
5 | O=C(O)c1ccc(NCc2c(-c3c(Cl)cccc3C(F)(F)F)noc2-c2ccco2)cc1 [compound 23, 4-[({3-[2-Chloro-6-(trifluoromethyl)phenyl]-5-(furan-2-yl)-1,2-oxazol-4-yl}methyl)amino]benzoic Acid] | 86.5 | 100 | 92.8 | 100 | 50.4 | improvement in potency compared to phenyl 19 (His6-RORγt-LBD [3]): 9 fold
6 | O=C(O)c1ccc(-c2nn(C(=O)c3c(Cl)cccc3C(F)(F)F)c3ccccc23)cc1 [compound 3, MRL-871, reference compound] | 100 | 81.0 | 47.1 | 99.9 | 23.7 | –
7 | O=C(O)c1ccc(NCc2c(-c3c(Cl)cccc3C(F)(F)F)noc2-c2cccc3ccccc23)cc1 [compound 26, 4-[({3-[2-Chloro-6-(trifluoromethyl)phenyl]-5-(naphthalen-1-yl)-1,2-oxazol-4-yl}methyl)amino]benzoic Acid] | – | – | – | – | – | IC50 (TR-FRET coactivator recruitment) (His6-RORγt-LBD [3]; RORγt LBD, SRC-1 box2 peptide, triplicate): no IC50 curve could be fitted
8 | B1 | – | – | – | – | – | binding result [4]: binds
